Patent US10272261B2, “Methods and compositions for treating ocular glaucoma” (Massachusetts Eye and Ear Infirmary, priority 2004, dated 2019)

System: ciliary body
Experiment: Histology (light and electron microscopy) of ciliary body after PDT in C57BL/6 normal mice
Assay type: in vivo, mouse
Procedure: Eyes were enucleated at 6 hours (only DBA/2J), at 1 and 7 days after treatment, and at the end of IOP follow up (8 weeks after treatment)(n=2 in each group at each time point) and processed for light and transmission electron microscopic examination. The eyes were bisected behind the limbus, placed in modified Karnovsky's fixative at 4° C. overnight, and then transferred to 0.1 M cacodylate buffer at pH 7.4. Ciliary body specimens were observed by stereomicroscopy at 1 day after PDT for normal mice in the 4.0 mg/kg dose-treated group. Tissues were postfixed in aqueous 2% osmium tetroxide, stained en bloc with Uranyl Acetate, dehydrated in graded ethanols, and embedded in Epon. One-micrometer-thick sections were stained with 0.5% toluidine blue in borate buffer for light microscopy and examined using a photomicroscope (Leica Microsystems, Wetzlar, Germany). Thin sections were stained with aqueous uranyl acetate, and Sato's lead stain, and examined with a transmission electron microscope (CM 10; Phillips, Eindhoven, The Netherlands).

verteporfin
ciliary body histological findings (2.0 mg/kg and 4.0 mg/kg, 7 days after PDT): ciliary body vessels had recanalized
ciliary body histological findings (2.0 mg/kg, 1 day after PDT): Most ciliary body blood vessels in treated eyes appeared thrombosed and all capillaries were damaged
ciliary body histological findings (4.0 mg/kg, 1 day after PDT): vascular injury, thrombosis with vacuolization of endothelial cells, extravasculum of leukocyte and erythrocytes and severe edema
